The source of these data is patent publication US12084422B2, “Phenyl-n-quinoline derivatives for treating a RNA virus infection” (ABIVAX, priority 2018, dated 2024).

For assay [1], the system named is Chikungunya Virus (CHIKV) strain LR2006-OPY1 with GFP modification (CHIK 5'LR). Briefly: Inhibition of Chikungunya virus (CHIKV) production in infected HEK293T cell line (GFP fluorescence). The conditions noted are these: HEK-293T, infected HEK293T cells; for inhibition at 1 µM: compounds at 1 μM, MOI 0.1, 22 h, values above 100 lowered to 100, read-out: % CHIKV Inhibition Mean (n = 2); for IC50: second round of experiments. It is filed as cell-based. On the procedure:
The ability of the compounds to inhibit viral replication was assessed with an experiment in which infected cells were treated by compounds of formula (I) at 1 μM. As a positive control for inhibition of Chikungunya, Ribavirin was used. Toxicity of the compounds was assessed in parallel.
Human embryonic kidney cells 293T (HEK293T, CRL-11268) were maintained in Dulbecco's modified Eagle's Medium (DMEM, 31966-021, Thermo Fisher Scientific) supplemented with 10% of fetal bovine serum (FBS), penicillin and streptomycin. After removal of the medium, cells were washed with a Ca^2+- and Mg^2+-free salt solution to remove all traces of serum. After aspiration of wash solution, cells were dissociated with 0.25% Trypsin-EDTA solution and incubated 30 s at least in 37° ° C. incubator. Concentration of cell suspension was determined by an automatic cell counter (EVE, NanoEntek) and, if needed, adjusted to 0.33×10^6 cells/mL with DMEM medium supplemented with 10% FBS.
100 μL of the cell suspension were dispatched in a ViewPlate-96 Black (6005182, PerkinElmer) and in a transparent 96-well cell culture plate (655180, Greiner bio-one). After an incubation for 24 h at 37° C. under 5% of CO2, compounds were added at the proper concentration.
An intermediate dilution was prepared with DMSO (D8418, Sigma) at 2 mM in a 96-well V-bottom microplate from the stock solution:
Mix 1 μL of the 50 mM stock library in 25 μL of DMSO.
Mix 2 μL of the 25 mM stock library in 25 μL of DMSO.
An intermediate dilution was prepared with DMSO (D8418, Sigma) at 25 mM in a 96-well V-bottom microplate from the stock solution:
Mix 2 μL of the 50 mM stock library in 2 μL of DMSO.
Serial dilutions were performed in 2 μL of DMSO 13 times to reach 0.0015 mM as follows in table III:
For both screen and determination of IC50 1 μL of each solution was added in a 1 mL Masterblock 96 wells (Greiner bio-one, 780261) containing 1 mL of DMEM medium. As a positive control, 5 μL of a 80 mM Ribavirin solution (R9644, Sigma) is added to 1 mL of DMEM. On the other hand, DMSO is used as a negative control.
[…]. Vector Borne Zoonotic Dis. 2006; 6(4)). This modified virus was used to infect cells at MOI 0.1. […].
Medium was removed after 22 h at 37° ° C. under 5% of CO2 and cells were washed as described above. 60 μL of RIPA buffer (50 mM Tris-HCl pH8, 100 mM NaCl, 1 mM MgCl2, 1% Triton X-100) was added to cells and incubated for at least 20 min before reading fluorescence signal. Pierce 660 nm Protein Assay Reagent (22660, Thermo scientific) was used to normalize fluorescence signal by protein quantity.
A first round of experiments has been performed wherein the results are expressed as inhibition percentage, which is calculated as follows, through the following steps:
1. Fluorescence intensity (FI) 509 nm/Absorbance 660 nm (A660)=A
This ratio allows considering the infection (GFP virus) to the protein amount.
2. A′=A—background noise of non-infected plate,
3. B=Fluorescence intensity (FI)/Absorbance 660 nm (A660) of infected but non treated plates,
4. C=A′/B which is then converted as the percentage of infection after treatment, compared to non-treated sample, and subsequently as the […]. For instance, a value of 100 in Table IV here below means that, after treatment, the signal attributed to GFP fluorescence is abolished, which is correlated to the absence of infection.
This value corresponds to the inhibition's percentage.
The following Table IV encompasses said C′ value for some compounds as calculated above with a mean of 2 experiments, and the corresponding standard deviation.
Some values were originally above 100. In these cases, the value has been lowered to 100. This means that some molecules also have an impact on the viability of the cells. In other words, the A value may be lower than the background noise.
Moreover, for each measure, the test was performed with Ribavirin as control. The value of the inhibition percentage was checked, giving 100%.

The subject of another assay is DENV-2 strain 16681. The assay can be described thus: Screening for DENV-2 inhibition using Viral ToxGlo assay in A549 cells. It is filed as cell-based, Dengue 2 virus. The conditions noted are these: Dengue virus, DENV2, A549, 120 h, read-out: % DENV-2 Inhibition Mean (n = 3). The protocol: Protocol for Screening Antiviral Compounds for DENV-2 Inhibition and Cytotoxicity Using Viral ToxGlo Assay
A549 cells were maintained in Dulbecco's Modified Eagle Medium (DMEM) supplemented with 10% fetal bovine serum, 100 U/ml penicillin and 100 μg/ml streptomycin. For the purposes of the screening assay they were grown to 90% confluency, trypsinized and recovered. The trypsin was neutralised with cell culture media and cells were centrifuged at 150×g for 5 minutes before discarding the supernatant and resuspending cell pellet in assay media (DMEM supplemented with 2% fetal bovine serum and 100 U/ml penicillin and 100 μg/ml streptomycin). The cells were seeded into 96-well white clear-bottomed cell culture plates at a density of 1.0×10^4 cells/well in 50 μl. For the media/background control column assay media only was added. Cell plates were placed in a humid chamber and incubated overnight at 37° C./5% CO2. After overnight incubation cells were checked for confluency and healthy appearance.
Test compounds were prepared at a final concentration of 10 μM, in a maximum DMSO concentration of 1% (final assay concentration maximal 0.1% DMSO) and added to the cell plates in volumes of 10 μl. For cell control and virus control wells the test article solvent only was added. As a positive inhibition control, 7-Deaza-2′-C-methyladenosine was added at 100 μM in 3 wells. Virus (DENV-2 strain 16681) or assay media for cytotoxicity test wells and media/cell control wells was added immediately after test articles at an MOI of 0.5, 40 for 96 well plates respectively. Virus suspension was prepared by thawing DENV-2 frozen stocks and diluting to the required concentration of plaque forming units in assay media.
Cell plates were further incubated inside a humid chamber for 5 days p.i at 37° C./5% CO2. After the incubation period cells were observed under the microscope to check for characteristic cytopathic effect in virus control wells and healthy cells in the cell control wells. After plates were adjusted to room temperature 20 μl Viral ToxGlo (Promega) was added to each well of the 96-well cell plates. Plates were incubated at room temperature for 5 minutes before measuring the luminescence on a spectrophotometer (Envision, PerkinElmer).
DENV-2 inhibition was calculated as percentage of cytopathic effect inhibition relative to the virus control and cytotoxicity as percentage of cell survival relative to cell control wells.

The structures appear in SMILES notation.

Turning to `FC(F)(F)Oc1ccc(Nc2ccc3cccc(Cl)c3n2)c(C2CC2)c1` [Compound 4, 8-chloro-N-(2-cyclopropyl-4-(trifluoromethoxy)phenyl)quinolin-2-amine], in assay [1], the inhibition at 1 µM turned out to be 100% and the IC50 lay in the range of 1 to 200 nM.
Consider `COc1ccc(Oc2ccc(Nc3ccc4ccccc4n3)cc2)c(F)c1` [Compound 77, N-(4-(2-fluoro-4-methoxyphenoxy)phenyl)quinolin-2-amine], for which the inhibition at 10 µM in the assay with DENV-2 strain 16681 was found to be 87%.
As to `CCc1cc(OC(F)(F)F)ccc1Nc1ccc2ccccc2n1` [Compound 7, N-(2-ethyl-4-(trifluoromethoxy)phenyl)quinolin-2-amine], in assay [1], the inhibition at 1 µM was determined as 99%.
Take `Cc1ccc(Oc2ccc(Nc3ccc4cccc(Cl)c4n3)cc2)cc1` [Compound 31, 8-chloro-N-(4-(p-tolyloxy)phenyl)quinolin-2-amine]: the inhibition at 1 µM in assay [1] came out at 93%.
As for `CCc1cc(OC(F)(F)F)ccc1Nc1ccc2cccc(Cl)c2n1` [Compound 2, 8-chloro-N-(2-ethyl-4-(trifluoromethoxy)phenyl)quinolin-2-amine], in assay [1], the inhibition at 1 µM came out at 100% and the half-maximal inhibitory concentration (IC50) is 1 to 200 nM.
Take `Cc1cc(OCCOC(F)(F)F)ccc1Nc1ccc2cccc(Cl)c2n1` [Compound 14, 8-chloro-N-(2-methyl-4-(2-(trifluoromethoxy)ethoxy)phenyl)quinolin-2-amine]: the inhibition at 1 µM in assay [1] turned out to be 91%.
With `CC(C)Oc1ccc(Nc2ccc3cccc(Cl)c3n2)c(C2CC2)c1` [Compound 20, 8-chloro-N-(2-cyclopropyl-4-isopropoxyphenyl)quinolin-2-amine], in assay [1], the inhibition at 1 µM was determined as 99% and the IC50 was in the range of 1 to 200 nM. Moreover, the inhibition at 10 µM with DENV-2 strain 16681 is 94%.
As to `Cc1c(Nc2ccc3cccc(Cl)c3n2)ccc(OC(C)C)c1C` [Compound 21, 8-chloro-N-(4-isopropoxy-2,3-dimethylphenyl)quinolin-2-amine], in assay [1], the inhibition at 1 µM was found to be 100% and the IC50 fell in the range of 1 to 200 nM.
On to `Cc1cc(OC2CCCCC2)ccc1Nc1ccc2cccc(Cl)c2n1` [Compound 17, 8-chloro-N-(4-(cyclohexyloxy)-2-methylphenyl)quinolin-2-amine], for which, in assay [1], the inhibition at 1 µM worked out at 100% and the half-inhibitory concentration (IC50) lay in the range of 1 to 200 nM.
For the molecule `Fc1ccccc1Oc1ccc(Nc2ccc3cccc(Cl)c3n2)cc1` [Compound 32, 8-chloro-N-(4-(2-fluorophenoxy)phenyl)quinolin-2-amine], the inhibition at 1 µM in assay [1] is 90%.
Turning to `Cc1cc(OC2CCCC2)ccc1Nc1ccc2cccc(Cl)c2n1` [Compound 16, 8-chloro-N-(4-(cyclopentyloxy)-2-methylphenyl)quinolin-2-amine], in assay [1], the inhibition at 1 µM came to 98% and the IC50 fell in the range of 1 to 200 nM. In addition, the inhibition at 10 µM in the assay with DENV-2 strain 16681 was found to be 77%.
Consider `Clc1cccc2ccc(Nc3ccc(OC4CCCC4)cc3C3CC3)nc12` [Compound 44, 8-chloro-N-(4-(cyclopentyloxy)-2-cyclopropylphenyl)quinolin-2-amine], for which, in assay [1], the IC50 fell in the range of 1 to 200 nM. Besides, the inhibition at 10 µM in the assay on DENV-2 strain 16681 was determined as 94%.
The corresponding values for `Cc1cc(OC(C)C)c(C(C)C)cc1Nc1ccc2cccc(Cl)c2n1` [Compound 40, 8-chloro-N-(4-isopropoxy-5-isopropyl-2-methylphenyl)quinolin-2-amine] are 1 to 200 nM and 97%.
`Fc1ccccc1Oc1ccc(Nc2ccc3ccccc3n2)c(C2CC2)c1` [Compound 46, N-(2-cyclopropyl-4-(2-fluorophenoxy)phenyl)quinolin-2-amine] had an IC50 in assay [1] of 1 to 200 nM. Besides, the inhibition at 10 µM with DENV-2 strain 16681 stood at 104%.
Regarding `Cc1cc(Oc2ccccc2F)c(C)cc1Nc1ccc2cccc(Cl)c2n1` [Compound 63, 8-chloro-N-(4-(2-fluorophenoxy)-2,5-dimethylphenyl)quinolin-2-amine 2,2,2-trifluoroacetate], the inhibition at 10 µM with DENV-2 strain 16681 was determined as 74%.
Still for that read-out and setting: the figure for `CCc1cc(Oc2ccc(OC)cc2F)ccc1Nc1ccc2ccccc2n1` [Compound 76, N-(2-ethyl-4-(2-fluoro-4-methoxyphenoxy)phenyl)quinolin-2-amine] is 78%.
As to `FC(F)(F)Oc1ccc(Nc2ccc3ccccc3n2)c(C2CC2)c1` [Compound 8, N-(2-cyclopropyl-4-(trifluoromethoxy)phenyl)quinolin-2-amine], in assay [1], the inhibition at 1 µM worked out at 100%.
Molecule `CCc1cc(OC2CCC2)ccc1Nc1ccc2cccc(Cl)c2n1` [Compound 41, 8-chloro-N-(4-cyclobutoxy-2-ethylphenyl)quinolin-2-amine] gave an IC50 in assay [1] of 1 to 200 nM.
Regarding `COc1ccc(Oc2ccc(Nc3ccc4ccccc4n3)c(C)c2)c(F)c1` [Compound 45, N-(4-(2-fluoro-4-methoxyphenoxy)-2-methylphenyl)quinolin-2-amine], the IC50 in assay [1] was in the range of 1 to 200 nM.
Turning to `Cc1cc(OCc2ccccn2)ccc1Nc1ccc2cccc(Cl)c2n1` [Compound 23, 8-chloro-N-(2-methyl-4-(pyridin-2-ylmethoxy)phenyl)quinolin-2-amine], in assay [1], the inhibition at 1 µM amounted to 82%.
Still for that read-out and setting: the figure for `CC(C)Cc1cc(OC(F)(F)F)ccc1Nc1ccc2cccc(Cl)c2n1` [Compound 3, 8-chloro-N-(2-isobutyl-4-(trifluoromethoxy)phenyl)quinolin-2-amine] is 100%.
Consider `CCc1cc(OC(F)(F)F)cc(C)c1Nc1ccc2cccc(Cl)c2n1` [Compound 5, 8-chloro-N-(2-ethyl-6-methyl-4-(trifluoromethoxy)phenyl)quinolin-2-amine], for which the inhibition at 10 µM in the assay on DENV-2 strain 16681 is 156%.
As to `Fc1ccccc1Oc1ccc(Nc2ccc3ccccc3n2)cc1` [Compound 29, N-(4-(2-fluorophenoxy)phenyl)quinolin-2-amine], the inhibition at 1 µM in assay [1] came out at 97%.
